ChEMBL document CHEMBL3621089, “Fluorophore-tagged pharmacophores for antitumor cytotoxicity: Modified chiral lipidic dialkynylcarbinols for cell imaging” (Bioorg Med Chem Lett, 2015)
One block for each molecule: values may come before it.

Tests used:
HCT-116 [1] = test: Cytotoxicity against human HCT116 cells assessed as live cells after 48 to 72 hrs by MTT assay; type: functional, cell-based
HCT-116 [2] = test: Cytotoxicity against human HCT116 cells; type: functional, cell-based
HCT-116 [3] = test: Drug uptake in human HCT116 cells at 1 uM after 30 mins by confocal microscopy; type: ADME, cell-based; conditions: hct-116, 0.5 h
HeLa = test: Drug uptake in human HeLa cells at 1 uM after 30 mins using Nile Red by confocal microscopy; type: ADME, cell-based; conditions: 0.5 h

Drug uptake (HCT-116 [3]): Active
SMILES: C#C[C@H](O)C#CCCCCCCCCCCc1cn(-c2cc3ccc(O)cc3oc2=O)nn1
IC50 (HCT-116 [1]): 3000 nM

Drug uptake (HCT-116 [3]): Active | Drug uptake (HeLa): Active
SMILES: C#C[C@H](O)C#CCCCCCCCCCCc1cn(CC2=C3C(C)=CC(C)=[N+]3[B-](F)(F)n3c(C)cc(C)c32)nn1
IC50 (HCT-116 [1]): 10000 nM

Drug uptake (HCT-116 [3]): Active
SMILES: C#C[C@H](O)C#CCCCCCCCCCCc1cn(CCCNc2ccc([N+](=O)[O-])c3nonc23)nn1
IC50 (HCT-116 [1]): 1100 nM

Second part, the molecule before the results:

SMILES: C#C[C@H](O)C#CCCCCCCCCCCc1cn(CCCCc2ccc3ccc4cccc5ccc2c3c45)nn1
IC50 (HCT-116 [1]): 900 nM

SMILES: C#C[C@@H](O)/C=C/CCCCCCCCCCCCCCC
IC50 (HCT-116 [2]): 60 nM | IC50 (HCT-116 [1]): 90 nM

SMILES: C#CCCCCCCCCCCC#C[C@@H](O)C#C
IC50 (HCT-116 [1]): 370 nM
